Source: ChEMBL document CHEMBL4145667, “Targeting Tumor Associated Carbonic Anhydrases IX and XII: Highly Isozyme Selective Coumarin and Psoralen Inhibitors” (ACS Med Chem Lett, 2018)

Tests used:
Carbonic anhydrase 9 = Carbonic anhydrase 9 (Homo sapiens, UniProt Q16790); assay: Binding affinity to human carbonic anhydrase 9 by stopped flow CO2 hydration method
Carbonic anhydrase 2 = Carbonic anhydrase 2 (Homo sapiens, UniProt P00918); assay: Binding affinity to human carbonic anhydrase 2 by stopped flow CO2 hydration method
Carbonic anhydrase 12 = Carbonic anhydrase 12 (Homo sapiens, UniProt O43570); assay: Binding affinity to human carbonic anhydrase 12 by stopped flow CO2 hydration method
Carbonic anhydrase 1 = Carbonic anhydrase 1 (Homo sapiens, UniProt P00915); assay: Binding affinity to human carbonic anhydrase 1 by stopped flow CO2 hydration method
Sequence of Carbonic anhydrase 1 (P00915 whole entry): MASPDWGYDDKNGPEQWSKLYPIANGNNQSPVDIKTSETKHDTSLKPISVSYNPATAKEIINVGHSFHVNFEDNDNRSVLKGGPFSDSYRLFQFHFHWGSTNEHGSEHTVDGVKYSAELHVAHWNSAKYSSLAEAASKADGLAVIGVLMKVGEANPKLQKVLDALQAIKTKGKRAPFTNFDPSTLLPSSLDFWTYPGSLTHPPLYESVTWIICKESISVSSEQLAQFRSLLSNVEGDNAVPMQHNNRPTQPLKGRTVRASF

Sequence of Carbonic anhydrase 12 (O43570 whole entry): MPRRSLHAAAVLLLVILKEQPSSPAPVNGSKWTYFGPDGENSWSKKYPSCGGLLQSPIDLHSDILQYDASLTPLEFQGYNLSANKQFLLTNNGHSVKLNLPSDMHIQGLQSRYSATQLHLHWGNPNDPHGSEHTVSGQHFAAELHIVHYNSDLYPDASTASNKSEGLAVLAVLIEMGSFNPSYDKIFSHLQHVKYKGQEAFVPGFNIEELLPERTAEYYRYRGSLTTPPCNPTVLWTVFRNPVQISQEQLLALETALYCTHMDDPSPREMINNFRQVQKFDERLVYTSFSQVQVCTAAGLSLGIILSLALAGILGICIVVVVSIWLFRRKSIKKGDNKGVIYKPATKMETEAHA

| Compound | Ki (Carbonic anhydrase 9) [nM] | Ki (Carbonic anhydrase 2) [nM] | Ki (Carbonic anhydrase 12) [nM] | Ki (Carbonic anhydrase 1) [nM] |
| --- | --- | --- | --- | --- |
| Cc1c(CC(=O)O)c(=O)oc2cc3occ(-c4ccccc4)c3cc12 | 17.5 | > 10000 | 9.4 | > 10000 |
| Cc1ccc(-c2coc3cc4oc(=O)c(CC(=O)Nc5ccc(S(N)(=O)=O)cc5)c(C)c4cc23)cc1 | 91.6 | 560 | – | 7070 |
| Cc1ccc(-c2coc3cc4oc(=O)c(CC(=O)O)c(C)c4cc23)cc1 | 23 | > 10000 | – | > 10000 |
| COC(=O)Cc1c(C)c2ccc(OCC(=O)c3ccccc3)cc2oc1=O | 89.7 | > 10000 | – | > 10000 |
| Cc1c(CC(=O)Nc2ccc(S(N)(=O)=O)cc2)c(=O)oc2cc3occ(-c4ccc(F)cc4)c3cc12 | 108 | 79.5 | – | 7150 |
| COC(=O)Cc1c(C)c2ccc(OCC(=O)c3ccc(Cl)cc3)cc2oc1=O | 23.6 | > 10000 | – | > 10000 |
| Cc1c(CC(=O)Nc2ccc(S(N)(=O)=O)cc2)c(=O)oc2cc3occ(-c4ccc(Cl)cc4)c3cc12 | 17.8 | 55.1 | – | 6830 |

More lines, in order of falling Ki (Carbonic anhydrase 9), values ahead:

| Ki (Carbonic anhydrase 9) [nM] | Ki (Carbonic anhydrase 2) [nM] | Ki (Carbonic anhydrase 12) [nM] | Ki (Carbonic anhydrase 1) [nM] | Compound |
| --- | --- | --- | --- | --- |
| 123 | > 10000 | – | > 10000 | COC(=O)Cc1c(C)c2ccc(OCC(=O)c3ccc(C)cc3)cc2oc1=O |
| 94.7 | > 10000 | – | > 10000 | Cc1c(CC(=O)O)c(=O)oc2cc3occ(-c4ccc(Cl)cc4)c3cc12 |
| 84.7 | > 10000 | – | > 10000 | COC(=O)Cc1c(C)c2ccc(OCC(=O)c3ccc(F)cc3)cc2oc1=O |
| 17.7 | > 10000 | 7.4 | > 10000 | Cc1c(CC(=O)O)c(=O)oc2cc3occ(-c4ccc(F)cc4)c3cc12 |
| 16.5 | 46.6 | – | 7020 | Cc1c(CC(=O)Nc2ccc(S(N)(=O)=O)cc2)c(=O)oc2cc3occ(-c4ccccc4)c3cc12 |
